# Source: US20240261249A1, “NOVEL SQUARAMIDE DERIVATIVE AND USE THEREOF” (PUSAN NATIONAL UNIVERSITY INDUSTRY-UNIVERSITY COOPERATION …, priority 2021, published 2024)
# Read-outs that look alike come from different tables or passages of the source.
# What was measured:
# Format in all cases: cell-based
# Phospho-eIF2α (Ser51) = Phospho-eIF2α (Ser51) Sandwich ELISA in K562 cells; conditions: Homo sapiens, K562, 6 h, serum-free RPMI, 10 μM compound, control = 1, read-out: eIF2α phosphorylation, absorbance standardized to control (DMSO-treated) set to 1, at 10 μM
# Outline: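 K562 cells in serum-free RPMI (37 °C, 5% CO2) were exposed to compounds at 10 μM for 6 h, then lysed, and 50 μg protein was run in the sandwich ELISA. Absorbance was normalised to the DMSO control set to 1.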
# K562 cell line = test: CCK-8 anti-proliferative assay, K562; conditions: Homo sapiens, 72 h, K562, culture for 3 days
# Description: CCK-8 assay (cell counting kit-8 assay, Dojindo, Kumamoto, Japan) was performed. The K562 cell line was cultured in RPMI medium supplemented with 10% FBS and 1% ABAM at 37° C. in the presence of 5% CO2. Cells were treated with test compounds at concentrations of 0 μM, 1.25 μM, 2.5 μM, 5 μM, 10 μM, and 20 μM, respectively. After culture for 3 days, 10 μL of CCK-8 solution was treated and cultured for 4 hours. Subsequently, the absorbance was measured at 450 nm to obtain the IC50 value of each compound.
# The experimental values for the K562 cell line are identical to biological Example 2.
# [1] = system: PBMC (peripheral blood monocyte cells isolated from normal donors); test: CCK-8 assay, PBMC (normal cells); conditions: for IC50: 72 h, PBMC normal cells, culture for 3 days, CCK-8, tested 0-20 μM; for SI (selectivity index): K562 cells compared to PBMC
# Description: PBMC (peripheral blood monocyte cells isolated from normal donors) cell lines were dispensed in RPMI medium supplemented with 10% FBS and 1% ABAM at 37° C. in the presence of 5% CO2, and then the test compounds were treated at concentrations of 0 μM, 1.25 μM, 2.5 μM, 5 μM, 10 μM, and 20 μM, respectively. After culture for 3 days, 10 μL of CCK-8 solution was treated and cultured for 4 hours. Subsequently, the absorbance at 450 nm was measured to obtain the IC50 value of each compound.
# [2] = CCK-8, Table 3 (identical to Example 2), tested 0-20 μM, read-out: IC50 K562
Structure (SMILES),activity at 10 µM (Phospho-eIF2α (Ser51)) [%],"IC50 (K562 cell line; CCK-8, Table 2, read-out: IC50) [µM]",IC50 (K562 cell line; [2]) [µM],IC50 [1] [µM],SI (selectivity index) [1]
"N#Cc1ccc(O[C@H]2CC[C@H](Nc3c(Nc4cccc(C(F)(F)F)c4)c(=O)c3=O)CC2)cc1 [Compound 24, 4-(((1,4-trans)-4-((3,4-Dioxo-2-((3-(trifluoromethyl)phenyl)amino)cyclobut-1-en-1-yl)amino)cyclohexyl)oxy)benzonitrile]",195,5.94,5.94,22.5,3.82
"O=c1c(Nc2cccc(C(F)(F)F)c2)c(N[C@H]2CC[C@H](Oc3ccc([N+](=O)[O-])cc3)CC2)c1=O [Compound 25, 3-(((1,4-trans)-4-(4-Nitrophenoxy)cyclohexyl)amino)-4-((3-(trifluoromethyl)phenyl)amino)cyclobut-3-ene-1,2-dione]",140,12.2,12.2,16,1.27
"CC(C)(C)c1cccc(Nc2c(N[C@H]3CC[C@H](Oc4ccc(C#N)cc4)CC3)c(=O)c2=O)c1 [Compound 29, 4-(((1,4-trans)-4-((2-((3-(tert-Butyl)phenyl)amino)-3,4-dioxocyclobut-1-en-1-yl)amino)cyclohexyl)oxy)benzonitrile]",176,4.09,4.09,17,3.82
"CC(C)(C)c1cccc(Nc2c(N[C@H]3CC[C@H](Oc4ccc([N+](=O)[O-])cc4)CC3)c(=O)c2=O)c1 [Compound 30, 3-((3-(tert-Butyl)phenyl)amino)-4-(((1,4-trans)-4-(4-nitrophenoxy)cyclohexyl)amino)cyclobut-3-ene-1,2-dione]",112,5.09,5.09,12.8,2.61
"CC(C)(C)c1cccc(Nc2c(N[C@H]3CC[C@H](Oc4ccc(S(C)(=O)=O)cc4)CC3)c(=O)c2=O)c1 [Compound 31, 3-((3-(tert-Butyl)phenyl)amino)-4-(((1,4-trans)-4-(4-(methylsulfonyl)phenoxy)cyclohexyl)amino)cyclobut-3-ene-1,2-dione]",150,5.69,5.69,35.1,6.10
"N#Cc1cc(Nc2c(N[C@H]3CC[C@H](Oc4ccc(C(F)(F)F)cc4)CC3)c(=O)c2=O)cc(C(F)(F)F)c1 [Compound 83, 3-((3,4-Dioxo-2-(((1,4-trans)-4-(4-(trifluoromethyl)phenoxy)cyclohexyl)amino)cyclobut-1-en-1-yl)amino)-5-(trifluoromethyl)benzonitrile]",184,4,4,19.3,4.46
"N#Cc1ccc(O[C@H]2CC[C@H](Nc3c(Nc4cc(C#N)cc(C(F)(F)F)c4)c(=O)c3=O)CC2)cc1 [Compound 84, 3-((2-(((1,4-trans)-4-(4-Cyanophenoxy)cyclohexyl)amino)-3,4-dioxocyclobut-1-en-1-yl)amino)-5-(trifluoromethyl)benzonitrile]",143,10.1,10.1,29.4,2.26
"CS(=O)(=O)c1ccc(O[C@H]2CC[C@H](Nc3c(Nc4cc(C#N)cc(C(F)(F)F)c4)c(=O)c3=O)CC2)cc1 [Compound 86, 3-((2-(((1,4-trans)-4-(4-(Methylsulfonyl)phenoxy)cyclohexyl)amino)-3,4-dioxocyclobut-1-en-1-yl)amino)-5-(trifluoromethyl)benzonitrile]",168,14.2,14.2,21,1.31
